The results in this text go back to patent US11484479B2, “Formulation for the elimination of cariogenic and opportunistic pathogens within the oral cavity” (Research Institute at Nationwide Children's Hospital, priority 2015, dated 2022).

Each structure is given as a SMILES string.

The test system of one test is S. mutans. The test can be described thus: Toxic cargo DM assay. In kind it is cell-based, Streptococcus mutans. As to conditions: monoculture, 1 min; CHX 0.033% and H2O2 0.25% final concentration, no DM (FIG. 8A left). The method, then: (§1) DM was hydrated in THB only (control) or THB containing either hydrogen peroxide (1.5%) or chlorhexidine (0.2%) to create a 10% (w/v) slurry. For Applicant's DM assays, 250 μl of hydrated DM G25 superfine (125 μl final volume; 12.5 mg) was added to a Micro Bio-Spin chromatography column (BioRad, Hercules, Calif.) and excess liquid was removed by centrifugation at 100×g for 30 seconds, leaving DM with toxic cargo in the lumen. 125 μl of THB (the same volume of excess toxic cargo removed by filtration) was added to the DM column to create a 10% slurry (w/v), followed by the immediate addition of 500 μl of culture as described above for Applicant's basic DM assay. For control assays containing no DM, 125 μl of THB or THB containing toxic cargo (the same volume that is present in the DM lumen) was added to the spin column containing 125 THB followed by the addition of 500 μl of culture as described above for Applicant's basic DM assay. After incubation for 1 minute at RT, the cell/DM mixture was centrifuged for 1 minute at 100×g. The flow-through was serial diluted in PBS, and serial dilutions were plated onto THB (S. gordonii) or THB containing 1.5 μg/ml erythromycin (S. mutans) or LB (E. coli) agar and incubated at 37° C.+5% CO2. […]

A further test deals with S. gordonii. The experiment in a line: Toxic cargo DM assay. In kind it is cell-based, Streptococcus gordonii. To be noted: monoculture, 1 min; CHX 0.033% and H2O2 0.25% final concentration, no DM (FIG. 8A left). As to the method: as §1

For `[H]/N=C(\N/C(=N/[H])NCCCCCCNC(=N)NC(=N)Nc1ccc(Cl)cc1)Nc1ccc(Cl)cc1` [CHX, chlorhexidine], in the test on S. mutans, the “Total viable S. mutans after antimicrobial alone (no DM)” value is “decreased the amount of total viable S. mutans and S. gordonii”. Besides, the “Total viable S. gordonii after antimicrobial alone (no DM)” value in the test on S. gordonii is “decreased the amount of total viable S. mutans and S. gordonii”.

As to `OO` [H2O2, hydrogen peroxide], in the test with S. mutans, the “Total viable S. mutans after antimicrobial alone (no DM)” value was “decreased the amount of total viable S. mutans and S. gordonii”. Besides, the “Total viable S. gordonii after antimicrobial alone (no DM)” value with S. gordonii was “decreased the amount of total viable S. mutans and S. gordonii”.
